# Assay results as given in EP4778531A1, “MUSCLE RELAXANT ANTAGONIST FOR REVERSAL FOR BENZYLISOQUINOLINE MUSCLE RELAXANT” (priority 2023, dated 2025).
# Experiments:
# [1] = tested on: Hypersensitivity-Related Factors; assay: Antibody array (Ary028 immune chip kit): hypersensitivity-related factors after repeated dosing; type: in vivo; conditions: ICR mice; tail vein once daily for 5 days; Adamgammadex sodium 1 g/kg, Sugammadex sodium 1 mg/kg, Neostigmine 0.3 mg/kg; pooled plasma of 2 mice; N.D. = below minimum detection limit
# Procedure: (§1) An antibody array is a type of protein chip characterized by miniaturization, integration, and high throughput. It can be used to detect the expression abundance of proteins related to a specific physiological or pathological process. The principle involves arranging capture antibodies on a membrane or glass slide, incubating with the sample, adding biotin-labeled antibodies against the target proteins, and finally using HRP-streptavidin or fluorescein-streptavidin to detect the chip signal. Signals are detected using chemiluminescence or HiLyte™ Fluor 555-streptavidin.
# (§2) In this experiment, ICR mice were randomly divided into a blank group, Adamgammadex sodium (1 g/kg) group, Sugammadex sodium (1 mg/kg) group, and Neostigmine (0.3 mg/kg) group, with 2 mice per group. Mice in each group given the corresponding dosage of compound via the tail vein once daily for 5 consecutive days. On the last day after administration, plasma from the 2 animals per group was mixed and detected using the Ary028 immune chip kit. Specific detection steps were as follows: • (1) Sample volume determination: 200 µL serum sample per Array unit. (2) Blocking protein chip: Each membrane was blocked with 2 mL of corresponding Array Buffer, incubated on a shaker for 1 hour. (3) Sample processing: Samples were diluted with corresponding Array Buffer to a volume of 1.5 mL per membrane, the corresponding Array unit was added, and incubated overnight with the Array protein membrane at 4°C. (4) Membranes were washed three times with corresponding Wash buffer, then diluted detection antibody was added and incubated at room temperature for 1 h. (5) Membranes were washed three times with corresponding Wash buffer, streptavidin-HRP was added and incubated for 30min at room temperature with shaking. (6) Membranes were washed three times with corresponding Wash buffer, 1 mL of chemiluminescent reagent was added to each well, and developed on a chemiluminescence imager. (7) Fluorescence intensity was used to represent the relative concentration of the corresponding protein.
# [2] = tested on: Inflammation-Related Factors; type: in vivo, ICR mice; conditions: Adamgammadex sodium 1 g/kg, Sugammadex sodium 1 mg/kg, Neostigmine 0.3 mg/kg; for impact on inducing immune inflammation in mice (in words): conclusion from Tables 3 and 4; for Fluorescence Intensity M-CSF (Macrophage lysis-stimulating factor): second M-CSF line of Table 4
# Procedure: as §1, §2
# [3] = tested on: Wild-type AB strain zebrafish; assay: Evaluation of compound-induced sensitization risk in zebrafish (tryptase OD, BAPNA); type: in vivo; conditions: 500 ng/tail
# Procedure: Wild-type AB strain zebrafish at 2 days post-fertilization (2 dpf) were randomly selected and placed in 24-well plates. Each group was with 6 replicate wells per group and 10 zebrafish per well. The following groups were set up: (1) Normal control group; (2) Positive control group (the used drug was mast cell sensitizer C48/80 at 1.5 µg/mL concentration); (3) Compound 1 (adamgammadex sodium) experimental group; (4) Compound 2 experimental group; (5) Compound 3 experimental group; (6) Compound 4 experimental group; (7) Compound 5 experimental group; (8) Compound 6 experimental group; (9) Compound 7 (sugammadex sodium) experimental group. In the experimental groups, Compound 1 was adamgammadex sodium, Compounds 2-6 were adamgammadex sodium analogues, and Compound 7 was sugammadex sodium. The volume of each well was 1 mL, and all experimental groups were treated with BAPNA (a specific detection reagent for mast cell degranulation) dissolved in water. Table 1: Structural Formulas of Compounds 1-7
# After 1 day of treatment at 28°C, the liquid was transferred to a 96-well plate, with 200 µL/well. The relative absorbance (OD value) of tryptase expression levels in each experimental group was measured using a microplate reader. The OD value statistical analysis results were used to evaluate the sensitization risk of the samples. Statistical analysis was performed using SPSS software, with p < 0.05 indicating a significant difference. Sensitization risk (%) = (OD(Samplegroup)−OD(NormalControlgroup))/(OD (NormalControlgroup)) × 100% [formula]
# [4] = ICR mice, tail vein once daily for 5 days, pooled plasma of 2 mice, N.D. = below minimum detection limit
compound,measurement,setting,value
"CN(C)C(=O)Oc1cccc([N+](C)(C)C)c1 [Neostigmine, neostigmine methylsulfate]",Fluorescence Intensity CCL11 (Eosinophil activation chemokine),[1],6286.81
same,Fluorescence Intensity CCL12 (Monocyte chemotactic receptor 5),[1],5003.37
same,Fluorescence Intensity GM-CSF (Granulocyte-macrophage colony-stimulating factor),[1],1679.67
same,Fluorescence Intensity IL-1α (Interleukin 1α),[1],1891.15
same,Fluorescence Intensity IL-1β (Interleukin 1β),[1],1087.46
same,Fluorescence Intensity IL-3 (Interleukin 3),[1],1133.66
same,Fluorescence Intensity IL-4 (Interleukin 4),[1],3939.66
same,Fluorescence Intensity IL-5 (Interleukin-5),[1],1864.09
same,Fluorescence Intensity IL-6 (Interleukin-6),[1],2321.39
same,Fluorescence Intensity IL-15 (Interleukin-15),[1],1503.8
same,Fluorescence Intensity TNF-α (Tumor necrosis factor),[1],1116.77
same,Fluorescence Intensity BAFF/BlyS/ TNFSF13B (B cell activation factor),[2]; [4],12170.94
same,Fluorescence Intensity C-Reactive Protein/CRP (C-reactive protein),[2]; [4],11999.12
same,Fluorescence Intensity CCL17/TARC (Thymus activation regulatory chemokine),[2]; [4],3653.32
same,Fluorescence Intensity CCL19/MIP 3β (Macrophage inflammatory protein 3β),[2]; [4],3385.33
same,Fluorescence Intensity CCL20/MIP 3α (Macrophage inflammatory protein 3α),[2]; [4],4440.55
same,Fluorescence Intensity CCL21/6Ckine (Lymphocyte chemokine CCL21),[2]; [4],17119.34
same,Fluorescence Intensity CCL22/MDC (Macrophage-derived chemokine),[2]; [4],4762.19
same,Fluorescence Intensity CD160 (Leukocyte differentiation antigen160),[2]; [4],4298.1
same,Fluorescence Intensity CX3CL1/ Gractalkine (Neural chemokine),[2]; [4],2935.07
same,Fluorescence Intensity CXCL1/KC (Neutrophil chemokine),[2]; [4],2935.82
same,Fluorescence Intensity CXCL9/MIG (IFN-γ-induced monocyte factor),[2]; [4],1730.04
same,Fluorescence Intensity CXCL10/IP-10 (Interferon-induced protein 10),[2]; [4],1971.99
same,Fluorescence Intensity CXCL11/I-TAC (Interferon-induced T cell chemokines),[2]; [4],2397.51
same,Fluorescence Intensity CXCL13 (CXC family chemokine),[2]; [4],3607.1
same,Fluorescence Intensity CXCL16 (CXC family chemokine),[2]; [4],2426.598
same,Fluorescence Intensity Chemerin (Chemotactic factor),[2]; [4],7955.57
same,Fluorescence Intensity G-CSF (Granulocyte colony-stimulating factor),[2]; [4],1289.56
same,Fluorescence Intensity IL-2 (Interleukin-2),[2]; [4],1107.85
same,Fluorescence Intensity IL-7 (Interleukin-7),[2]; [4],3226.41
same,Fluorescence Intensity IL-10 (Interleukin-10),[2]; [4],1601.99
same,Fluorescence Intensity IL-11 (Interleukin-11),[2]; [4],2195.99
same,Fluorescence Intensity IL-12p40 (Interleukin IL-12p40),[2]; [4],2936.85
same,Fluorescence Intensity IL-13 (Interleukin-13),[2]; [4],1609.58
same,Fluorescence Intensity IL-15 (Interleukin-15),[2]; [4],1503.8
same,Fluorescence Intensity IL-17A (Interleukin -17A),[2]; [4],783.45
same,Fluorescence Intensity IL-22 (Interleukin-22),[2]; [4],1253.05
same,Fluorescence Intensity IL-23 (Interleukin-23),[2]; [4],1483.72
same,Fluorescence Intensity IL-27p28 (Interleukin-27p28),[2]; [4],1575.98
same,Fluorescence Intensity IL-28 (Interleukin-28),[2]; [4],3505.78
same,Fluorescence Intensity IL-33 (Interleukin-33),[2]; [4],1897.86
same,Fluorescence Intensity M-CSF (Macrophage colony-stimulating factor),[2]; [4],6478.33
same,Fluorescence Intensity Myeloperoxidase (Mastoperoxidase),[2]; [4],6395.44
same,Fluorescence Intensity Pentraxin 3 (Pertussis toxin 3),[2]; [4],3694.57
same,Fluorescence Intensity TIM-1/KIM-1/ HAVCR (Hepatitis A virus receptor-1 (inflammation/ immunity)),[2]; [4],1197.17
same,impact on inducing immune inflammation in mice (in words),[2],most severe impact
same,Fluorescence Intensity M-CSF (Macrophage lysis-stimulating factor),[2]; [4],6478.33
same,Fluorescence Intensity Pentraxin 3/TSG-14 (Pertussis toxin 3),"[2]; second Pentraxin 3 line of Table 4, ICR mice, tail vein once daily for 5 days, pooled plasma of 2 mice, N.D. = below minimum detection limit",3694.57
Adamgammadex sodium [Compound 1],Fluorescence Intensity CCL12 (Monocyte chemotactic receptor 5),[1],168.83
same,Fluorescence Intensity IL-4 (Interleukin 4),[1],225.32
same,Fluorescence Intensity IL-6 (Interleukin-6),[1],89.83
same,Fluorescence Intensity BAFF/BlyS/ TNFSF13B (B cell activation factor),[2]; [4],6659.29
same,Fluorescence Intensity C-Reactive Protein/CRP (C-reactive protein),[2]; [4],5549.81
same,Fluorescence Intensity CCL21/6Ckine (Lymphocyte chemokine CCL21),[2]; [4],8082.61
same,Fluorescence Intensity CCL22/MDC (Macrophage-derived chemokine),[2]; [4],738.38
same,Fluorescence Intensity Chemerin (Chemotactic factor),[2]; [4],2680.26
same,Fluorescence Intensity IL-7 (Interleukin-7),[2]; [4],1850.57
same,Fluorescence Intensity IL-28 (Interleukin-28),[2]; [4],244.77
same,Fluorescence Intensity M-CSF (Macrophage colony-stimulating factor),[2]; [4],871.82
same,Fluorescence Intensity Myeloperoxidase (Mastoperoxidase),[2]; [4],1927.54
same,impact on inducing immune inflammation in mice (in words),[2],smallest impact
same,Fluorescence Intensity M-CSF (Macrophage lysis-stimulating factor),[2]; [4],871.82
same,OD value (mean ± SE),"[3]; 1 day at 28°C, relative absorbance of tryptase expression levels",0.060 ± 0.001
same,Sensitization risk (%),"[3]; 1 day at 28°C, vs normal control OD",11%
same,sensitization risk (in words),[3]; conclusion from OD value,almost no sensitization risk
